Experimental data taken from publication PMC5628579, “Potent mechanism-based sirtuin-2-selective inhibition by an in situ-generated occupant of the substrate-binding site, “selectivity pocket” and NAD^+-binding site” (Chemical Science, 2017).

Target: T1, SIRT1 (Homo sapiens, UniProt Q96EB6)
T1 sequence (Q96EB6 1-747): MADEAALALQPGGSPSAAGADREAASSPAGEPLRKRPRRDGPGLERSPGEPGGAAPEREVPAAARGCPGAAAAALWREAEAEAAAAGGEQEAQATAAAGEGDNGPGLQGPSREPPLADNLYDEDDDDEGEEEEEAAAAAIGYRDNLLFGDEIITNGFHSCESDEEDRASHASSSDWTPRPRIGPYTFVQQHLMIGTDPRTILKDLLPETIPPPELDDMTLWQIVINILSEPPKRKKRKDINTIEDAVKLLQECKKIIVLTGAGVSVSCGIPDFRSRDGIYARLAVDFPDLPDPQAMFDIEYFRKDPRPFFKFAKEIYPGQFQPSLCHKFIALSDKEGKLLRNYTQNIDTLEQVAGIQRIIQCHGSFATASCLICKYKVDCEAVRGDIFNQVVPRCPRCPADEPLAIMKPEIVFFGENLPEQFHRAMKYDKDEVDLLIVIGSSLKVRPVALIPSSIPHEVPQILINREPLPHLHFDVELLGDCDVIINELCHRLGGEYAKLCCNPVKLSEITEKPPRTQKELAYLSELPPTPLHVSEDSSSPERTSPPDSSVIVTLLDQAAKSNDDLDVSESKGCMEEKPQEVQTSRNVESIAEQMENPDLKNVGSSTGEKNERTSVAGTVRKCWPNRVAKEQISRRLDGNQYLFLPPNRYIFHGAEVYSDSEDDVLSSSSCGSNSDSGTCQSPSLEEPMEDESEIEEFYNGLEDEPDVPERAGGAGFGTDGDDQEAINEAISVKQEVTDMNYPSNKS
Experiment: Fluor de Lys SIRT1 assay

IC50: 1560 ± 60 nM | inhibition at 1 µM (read-out: % inhibition at 1 μM SIRT1): 29.5 ± 2.1%
Compound: C[C@H](NC(=O)[C@H](CCCCNC(=S)CNC(=O)c1ccccc1Nc1cccc(OCCc2ccccc2)c1)NC(=O)OCc1ccccc1)C(N)=O [Compound 36]
